Measurements published in patent publication US5547970A, “Use of leflunomide for inhibiting tumor necrosis factor alpha” (priority 1993, dated 1996).
“Also recorded” adds a separate entry of the source.

Experiments:
[1] = test system: TNFalpha; test: Inhibition of lipopolysaccharide-induced synthesis and liberation of TNFalpha in human mononuclear blood cells (sandwich enzyme immuno test); format: cell-based; conditions: for activity at 10 µM: 0.01 mmol/l; for activity at 100 µM: 0.1 mmol/l; for inhibitory effect on the synthesis and liberation of cytokines from human blood cells / effect on the TNFalpha level: in words; for effect on the TNFalpha level: experiments in Tab. 1
Protocol: The cell fraction which was visible as a white ring at the phase boundary was removed with the aid of a syringe, diluted 1:1 (v/v) with PM-16 buffer (from Serva Feinbiochemica GmbH & Co. KG, Heidelberg) and then centrifuged once again, as above, for 10 min. […] Using a cell counter (type IT, from Coulter Diagnostics, Krefeld), the cell suspension, which is composed of about 90% lymphocytes and 10% monocytes, was adjusted to about 5 million cells/ml. Cell viability was monitored before and after the inhibition experiments using the known lactate dehydrogenase method.
The synthesis and liberation of cellular TNFalpha was induced by adding a solution of 500 ng of lipopolysaccharide (Salmonella abortus equi, Sigma GmbH, Deisenhofen) in 0.01 ml of dimethyl sulfoxide/water (1:10, v/v) to 0.48 ml of the above-described cell fraction. At the same time, a solution of leflunomide or leflunomide metabolite in 0.01 ml of dimethylsulfoxide (for the final concentration in each case, see Tab. 1) was added to the cell fraction and the mixture was left at 37° C. for 20 h in a commercially available incubator. After cooling down to 0° C., the samples were centrifuged for 1 min. in a bench centrifuge. and in each case 0.025 ml aliquots of the supernatant were examined for their TNFalpha content using a "sandwich" enzyme immuno test kit (from Biermann GmbH, Bad Nauheim) in accordance with the manufacturer's instructions. The control values were determined without the addition of leflunomide or its metabolites and set at 100%. In particular, any possible influence of dimethylsulfoxide on the TNFalpha level was excluded by appropriate comparative measurements.

[2] = test system: mononuclear cells; test: Metabolism of leflunomide in the test sample (mononuclear cell fraction), HPLC; format: in vitro ADME, human; conditions: in words; isolated mononuclear blood cells
[3] = as above; format: in vitro ADME, human; conditions: human, mononuclear cells; mononuclear cell fraction, 37° C., HPLC; read-out: half life of metabolism of leflunomide to its metabolites (converted)
[4] = Homo sapiens, LPS 500 ng, 37° C., 20 h, control = 100%, read-out: TNFalpha in the supernatant % +/- standard deviation

C/C(O)=C(\C#N)C(=O)Nc1ccc(C(F)(F)F)cc1 [Leflunomide metabolite, N-(4-trifluoromethylphenyl)-2-cyano-3-hydroxycrotonamide]
activity at 10 µM [1, 4]: 102 ± 12%
activity at 100 µM [1, 4]: 105%
inhibitory effect on the synthesis and liberation of cytokines from human blood cells [1]: does not exhibit this advantageous effect
effect on the TNFalpha level [1]: practically no effect on the TNFalpha level

Cc1oncc1C(=O)Nc1ccc(C(F)(F)F)cc1 [Leflunomide, N-(4-trifluoromethylphenyl)-5-methylisoxazole-4-carboxamide]
metabolism of leflunomide under the experimental conditions [2]: did not, to any appreciable extent, metabolize; also recorded: only very slowly; also recorded: no appreciable metabolism
half-life [3]: ~10 h
activity at 10 µM [1, 4]: 100 ± 15%
activity at 50 µM ([1]; Homo sapiens, 0.05 mmol/l, LPS 500 ng, 37° C., 20 h, control = 100%, read-out: TNFalpha in the supernatant % +/- standard deviation): 35%
activity at 100 µM [1, 4]: 28 ± 5%
inhibitory effect on the synthesis and liberation of cytokines from human blood cells [1]: strong inhibitory effect
effect on the TNFalpha level [1]: clearly lowered
